US8217085B2 (priority 2009, dated 2012)
Read-outs that look alike come from different tables or passages of the source.

Assays:
[1] = tested on: ATCC strain 43300 Staphylococcus aureus; settings: for average log reduction in cfu/ml: 48 hours; for Log reduction in cfu/ml: 120 hours
Procedure: This is the MIC for oxacillin and methicillin for this strain of bacteria.
USP<51> Antimicrobial Effectiveness protocol was used as the template experimental paradigm. […] All concentrations were plated out to the 10^−7 dilutionsto ascertain cfu/ml. […] This concentration is the industry standard for determining MRSA resistance in clinical applications.
Material was calculated on a 10 ml volume. Sterile oxacillin or methicillin was added to each experimental condition daily at 300 μl from a 30 mg/10 ml concentration giving it an initial final concentration of 6 μg/ml.
All tubes were inoculated with a dilution of MRSA giving a final level of colony forming units of 2.13×10^6/ml (Log=6.3). The tubes were incubated at 25° C. and mixed periodically. Plating was done at 24 hours, 48 hours and 5 days. Each condition was plated by diluting 1 ml of growth material into 9 ml of MLB diluent broth. This mixture was serial diluted down to 10^−7, and 1 ml placed in a sterile petri dish at each dilution point. 20 mls of TSA was added to each dilution, swirled and allowed to solidify. All dilutions were placed in a 35° C. incubator for 24 hours. Bacterial colonies on each plate were counted and colony counts changed into log format. A positive and negative control was ascertained.

[2] = tested on: ATCC strain 43300 Staphylococcus aureus
Procedure: Additional antibiotic was added every 24 hours. The growth periods tested were 24 (FIG. 5), 48, 72, 96 and 120 hours.
USP<51> Antimicrobial Effectiveness protocol was used as the template experimental paradigm. […] All concentrations were plated out to the 10^−7 dilutions to ascertain cfu/ml. […] Additional antibiotic was added at the initial concentration every 24 hours.
ATCC strain 43300 Staphylococcus aureus was streaked out for isolations. An isolated colony was chosen, streaked again and incubated. Isolate was chosen and then diluted to a McFarland standard of one. The estimated value was then taken to inoculate tubes containing growth media and 12, 30 or 60 μg/ml methicillin with approximately 10^5 cfu/ml. These tubes were incubated and plated for counting cfu.
Material was calculated on a 10 ml volume. Sterile methicillin was added to each experimental condition to a final concentration of 12, 30 or 60 μg/ml antibiotic. Lactose Broth positive controls both with and without the 12 μg/ml, 30 μg/ml, 60 μg/ml antibiotic were inoculated with MRSA. […] Tubes were set up in singlet, but plated in triplicate, as described below.
All tubes were then inoculated with a dilution of the selected ATCC strain 43300 Staphylococcus aureus clone giving a final level of colony forming units of 1.49×10^5/ml (log=5.17). The tubes were incubated at 25° C. and mixed periodically. Antibiotic was re-inoculated every 24 hours at the initial concentration to maintain pressure on the organism. Plating was done at 24, 48, 72, and 120 hours. Each condition was plated by diluting 1 ml of growth material into 9 ml of MLB diluent broth. […] This mixture was serial diluted down to 10^−7 with 1 ml placed in triplicate in a sterile petri dish at each dilution point. 20 mls of TSA was added to each dilution, swirled and allowed to solidify. All dilutions were placed in a 35° C. incubator for 24 to 72 hours. Bacterial colonies on each plate were counted and the average taken then changed into log format.

[3] = tested on: ATCC strain 43300 Staphylococcus aureus; format: cell-based
Text: (§1) No colonies were observed, indicating total kill.
as §1

[4] = tested on: ATCC strain 43300 Staphylococcus aureus; settings: 24 hours
Procedure: All concentrations were plated out to the 10^−7 dilutions to ascertain cfu/ml.
ATCC strain 43300 Staphylococcus aureus was streaked out for isolations and 25 clones were picked and diluted to a McFarland standard of one. The estimated value was then taken to inoculate tubes containing growth media and 12, 30 or 60 μg/ml methicillin or oxacillin with around 10^−7 cfu/tube.
Material was calculated on a 10 ml volume. Sterile oxacillin or methicillin was added to each experimental condition to a final concentration of 12, 30 or 60 μg/ml antibiotic.
All tubes were then inoculated with a dilution of the selected ATCC strain 43300 Staphylococcus aureus clone giving a final level of colony forming units of 9.4×10^7/ml (log=7.97). The tubes were incubated at 25° C. and mixed periodically. […] Plating was done at 24 hours. Each condition was plated by diluting 1 ml of growth material into 9 ml of MLB diluent broth. This mixture was serial diluted down to 10^−7, and 1 ml placed in a sterile petri dish at each dilution point. 20 mls of TSA was added to each dilution, swirled and allowed to solidify. All dilutions were placed in a 35° C. incubator for 24 hours. Bacterial colonies on each plate were counted and colony counts changed into log format. A positive and negative control was ascertained.

[5] = room temperature; cited from earlier work

SMILES: CS(C)(=O)=O [MSM, methylsulfonylmethane]
- average log reduction in cfu/ml ([1]; initial 5% MSM, 6 μg/ml methicillin): 2.7 log
- average log reduction in cfu/ml ([1]; initial 8% MSM, 6 μg/ml oxacillin): 2.7 log
- Log reduction in cfu/ml ([1]; initial 13-16% MSM, 6 μg/ml methicillin): ~3.5 log
- Log reduction in cfu/ml ([1]; initial 14-16% MSM, 6 μg/ml oxacillin): ~3.3 log
- average log reduction in cfu/ml ([1]; initial 16% MSM, 6 μg/ml methicillin): 2.1 log
- average log reduction in cfu/ml ([1]; initial 16% MSM, 6 μg/ml oxacillin): 2.1 log
- average log reduction in colony count ([2]; 30 μg/ml methicillin, lower end of MSM concentrations, 24 hours): 3 log
- log reduction in colony count ([2]; 5% MSM, 60 μg/ml methicillin, 48 hours): 4.1 log
- log reduction in colony count ([2]; 6% MSM, 12 μg/ml methicillin, 48 hours): 4.1 log
- log reduction in colony count ([2]; 6% MSM, 30 μg/ml methicillin, 24 hours): 2.8 log
- log reduction ([2]; 16% MSM, 12 μg/ml methicillin, 24 hours): 2.2 log
- recovery of MRSA after enrichment ([3]; 11% MSM, 60 μg/ml oxacillin, 96 hours): total kill
- recovery of MRSA after enrichment ([3]; 13% MSM, 60 μg/ml oxacillin, 120 hours): total kill
- recovery of MRSA after enrichment ([3]; 14% MSM, 60 μg/ml oxacillin, 96 hours): total kill
- recovery of MRSA after enrichment ([3]; 15% MSM, 30 μg/ml oxacillin, 120 hours): total kill
- recovery of MRSA after enrichment ([3]; 15% MSM, 60 μg/ml oxacillin, 72 hours): total kill
- recovery of MRSA after enrichment ([3]; 16% MSM, 60 μg/ml oxacillin, 120 hours): total kill
- average log reduction in cfu/ml ([4]; 5% MSM with antibiotic (12, 30 or 60 μg/ml oxacillin or methicillin)): 2.2 log
- average log reduction in cfu/ml ([4]; 16% MSM with antibiotic (barring methicillin 60 μg/ml outlier)): 3.3 log
- water solubility [5]: ≥ 20%
